Source: BindingDB's records for doi:10.1016/S0960-894X(97)00207-2 (1997)

Biological target: Beta-2 adrenergic receptor (Cavia porcellus) (UniProt Q8K4Z4)
Test: Tested for beta-2-adrenergic blocking effect by measuring the ability to inhibit the relaxing effect of epinephrine on the isolated tracheal muscle of guinea pigs

Beta-2 adrenergic receptor (Cavia porcellus), sequence (Q8K4Z4 whole entry, looked up): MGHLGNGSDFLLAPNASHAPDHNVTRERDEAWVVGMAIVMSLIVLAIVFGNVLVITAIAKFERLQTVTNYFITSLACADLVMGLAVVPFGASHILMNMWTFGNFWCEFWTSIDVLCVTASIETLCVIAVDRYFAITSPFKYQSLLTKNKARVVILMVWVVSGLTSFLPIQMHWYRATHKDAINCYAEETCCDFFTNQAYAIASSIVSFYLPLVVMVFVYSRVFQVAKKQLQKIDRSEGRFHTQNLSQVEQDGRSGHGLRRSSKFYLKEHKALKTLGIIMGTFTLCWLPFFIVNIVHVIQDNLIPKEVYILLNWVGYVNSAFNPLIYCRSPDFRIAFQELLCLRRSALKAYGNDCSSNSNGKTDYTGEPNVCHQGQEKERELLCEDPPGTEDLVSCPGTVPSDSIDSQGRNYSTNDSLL

IC50: 2.15 µM
SMILES: COCCc1ccc(OC(F)(F)[C@@H](O)CNC(C)C)cc1 [(S)-1,1-Difluoro-3-isopropylamino-1-[4-(2-methoxy-ethyl)-phenoxy]-propan-2-ol]
